For nine molecules, IC50 results are on record in patent US9163021B2, “Pyrrolo[3,2-c]pyridine tropomyosin-related kinase inhibitors” (Pfizer Limited, priority 2012, dated 2015).

pIC50: −log10 of the molar value.

Sequence of TRKA (P04629 441-796): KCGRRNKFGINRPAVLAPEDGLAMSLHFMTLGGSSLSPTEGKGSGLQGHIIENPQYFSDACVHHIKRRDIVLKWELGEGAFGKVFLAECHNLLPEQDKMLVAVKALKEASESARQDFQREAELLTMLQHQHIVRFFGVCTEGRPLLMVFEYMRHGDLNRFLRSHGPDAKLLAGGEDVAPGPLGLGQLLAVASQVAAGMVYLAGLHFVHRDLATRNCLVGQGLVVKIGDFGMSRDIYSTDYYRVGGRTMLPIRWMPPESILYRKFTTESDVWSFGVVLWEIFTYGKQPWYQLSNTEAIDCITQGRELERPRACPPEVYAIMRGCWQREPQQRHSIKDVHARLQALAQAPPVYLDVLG

This experiment has as its target TRKA (Homo sapiens (Human), UniProt P04629). As to the kind of experiment: Isolated TRK enzyme assay (HTRF KinEASE-TK), PV3144 TrkA enzyme assay. In kind it is biochemical. The settings on record: arithmetic mean where more than one reading. Summed up: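 Kinase (recombinant His-TrkA cytoplasmic domain, ATP-preactivated 20 min) met compound 20 min, then biotinylated TK substrate (1 µM final) with Mg2+/DTT buffer; HTRF detection.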
As for `CC(C)n1ncc(CC(=O)Nc2cc(C(=O)c3cn(C(C)C)c4ccncc34)ccn2)c1C(F)(F)F` [Example 178, N-(4-{[1-(propan-2-yl)-1H-pyrrolo[3,2-c]pyridin-3-yl]carbonyl}pyridin-2-yl)-2-[1-(propan-2-yl)-5-(trifluoromethyl)-1H-pyrazol-4-yl]acetamide], the negative logarithm of the IC50 (pIC50) was 7.66.

“2-(2,5-dicyclopropyl-1,3-oxazol-4-yl)-N-(4-{[1-(oxetan-3-yl)-1H-pyrrolo[3,2-c]pyridin-3-yl]carbonyl}pyridin-2-yl)acetamide [Example 203]” had a pIC50 of 7.15. To `CC(CO)n1cc(C(=O)c2cncc(NC(=O)Cc3ccc(C#N)cc3)c2)c2cncc(F)c21` (single isomer, unassigned) [Example 217, 2-(4-cyanophenyl)-N-(5-{[7-fluoro-1-(1-hydroxypropan-2-yl)-1H-pyrrolo[3,2-c]pyridin-3-yl]carbonyl}pyridin-3-yl)acetamide] belongs 6.38. As for `CC(C)(CO)n1cc(C(=O)c2cc(NC(=O)Cc3cccc(C(F)(F)F)c3)ccn2)c2cnccc21` [Example 232, N-(2-{[1-(1-hydroxy-2-methylpropan-2-yl)-1H-pyrrolo[3,2-c]pyridin-3-yl]carbonyl}pyridin-4-yl)-2-[3-(trifluoromethyl)phenyl]acetamide], the figure is 7.95; as for `Cc1nc(CC(=O)Nc2cc(C(=O)c3cn(C(C)C)c4ccncc34)ccn2)c(C)o1` [Example 179, 2-(2,5-dimethyl-1,3-oxazol-4-yl)-N-(4-{[1-(propan-2-yl)-1H-pyrrolo[3,2-c]pyridin-3-yl]carbonyl}pyridin-2-yl)acetamide], 6.79; as for `CC(C)(CO)n1cc(C(=O)c2cncc(NC(=O)Cn3ccc(C(F)(F)F)n3)c2)c2cncc(F)c21` [Example 95, N-(5-{[7-fluoro-1-(1-hydroxy-2-methylpropan-2-yl)-1H-pyrrolo[3,2-c]pyridin-3-yl]carbonyl}pyridin-3-yl)-2-[3-(trifluoromethyl)-1H-pyrazol-1-yl]acetamide], 8.53. `O=C(Cc1ccc(F)cc1F)Nc1cc(C(=O)c2cn(CCO)c3ccncc23)ccn1` [Example 145, 2-(2,4-difluorophenyl)-N-(4-{[1-(2-hydroxyethyl)-1H-pyrrolo[3,2-c]pyridin-3-yl]carbonyl}pyridin-2-yl)acetamide] gave a negative logarithm of the IC50 (pIC50) of 6.52. As for `CC(C)(CO)n1cc(C(=O)c2cncc(NC(=O)Cn3cc(C(F)(F)F)cn3)c2)c2cncc(F)c21` [Example 4, N-{5-[7-Fluoro-1-(2-hydroxy-1,1-dimethyl-ethyl)-1H-pyrrolo[3,2-c]pyridine-3-carbonyl]-pyridin-3-yl}-2-(4-trifluoromethyl-pyrazol-1-yl)-acetamide], the pIC50 is 8.27. As for `CC(C)n1cc(C(=O)c2ccnc(NC(=O)Cc3ccc(Cl)cc3)c2)c2cnccc21` [Example 103, 2-(4-chlorophenyl)-N-(4-{[1-(propan-2-yl)-1H-pyrrolo[3,2-c]pyridin-3-yl]carbonyl}pyridin-2yl)acetamide], the figure is 7.82.
